From patent publication US11718592B2, “Oxadiazole derivative” (Sumitomo Pharma Co., Ltd., priority 2020, dated 2023) come the findings set out here.

Data set [1] deals with ddY male mice. The experiment in a line: Test with model produced by subcutaneous injection of pentetrazol (minimum convulsion model, scPTZ). Format: in vivo. Particulars: 25 mg/kg oral administration. How it is done: In order to evaluate an antiepileptic drug, in general, a model produced by subcutaneous injection of pentetrazol (minimum convulsion model, scPTZ) is used, which has high clinical predictability. […] In this test, an animal model which expresses generalized absence seizure or myoclonic seizure was used. Test compounds were orally administered to Sic: ddY male mice (purchased from Japan SLC, Inc., 5 mice in each group, body weight 20-30 g). After an hour, pentetrazol (85 mg/kg) was subcutaneously administered. […] To control mice, 0.5% methylcellulose solution was administered, and the same test was done. The results are represented as the number of mice with no convulsion, per 5 mice. The present test was deemed to succeed when 4 mice among 5 mice in the control group developed convulsions.

Data set [2] relates to GABA(A) receptors. Briefly: Evaluation of the potentiating effect on GABA(A) receptors (electrophysiology, GABA(A) receptor expressing cells). As to conditions: for The potentiating effect on GABA(A) receptors EC20: concentration giving 20% increase of the current generated by 2 μM GABA; for Inhibition rate to the increased electric current by adding flumazenil: 2 μM GABA and test compound with 10 μM flumazenil. Format: cell-based. The procedure:
Using GABA(A) receptor expressing cells prepared according to Guideline for Generation of Stable Cell Lines (website of Lonza Japan; Non-patent Literature 4), the present test is done for evaluating the potentiating effect of a drug on GABA(A) receptors based on the electric current raised by GABA. The GABA(A) receptor expressing cells were used in electrophysiological study, wherein the electric current was measured when 2 μM GABA solution and then a mixture of 2 μM GABA and the test compound were added to the cells. […] In addition, the electric current generated by a mixture of 2 μM GABA solution and the test compound with 10 μM flumazenil was measured, and the inhibition rate for the electric current by adding flumazenil was calculated compared to the electric current obtained in the absence of flumazenil.

Data set [3] relates to Slc: ddy male mice. Particulars: mouse, in vivo, po, 1 h.
Protocol: The present test is a test for evaluating whether the test compound may disturb coordinated movement or not. Rotarod is an apparatus equipped with a rotating columnar bar whose diameter is 4 cm, in which a mouse is made to walk on the rotating bar, and the coordinated movement is evaluated from the result of walking (can walk or cannot walk). Slc: ddy male mice (purchased from Japan SLC, Inc., body weight: 20-30 g) were trained 3 hours before the test starts so that they could walk on a rotarod apparatus rotating with a speed of 12 rotations per minute for 5 minutes without falling. Only the mice which can walk in the training are used in the test. The test compound was orally administered to a group consisting of 5 mice. […] To control mice, 0.5% methylcellulose solution was administered as test compound, and the same test was also done. The coordinated movement was evaluated with the average of the five mice's walking time (second).
Data set [4] relates to male Wister strain rats. The experiment in a line: Antidepressant effect in rat forced swimming test. Particulars: for antidepressant effect / immobility time (in words): oral; for average rate of deceasing the immobility time per that of the control group: swim 5 minutes an hour later. Format: in vivo. From the text:
The present test can evaluate antidepressant effect of a drug. When a rat is thrown into a water bath from which the rat cannot escape to be made to swim, the rat takes on escape behavior in the beginning and then becomes immobile. Next day, when the rat is thrown into a water bath again, the immobility appears earlier than that of the first trial. The method can evaluate the antidepressant effect of a test compound by using the duration of the immobility time as an indicator of depressive behavior. A day before the test, male Wister strain rats (purchased from Charles River Laboratories Japan, body weight: 260-300 g) were made to swim in a water bath for 15 minutes. On the test day, the test compound was orally administered to the rats (10-12 rats in one group). An hour later, the rats were made to swim again for 5 minutes and each immobility time was measured. In the control group, 0.5% methylcellulose solution as the test compound was administered to the rats which were subjected to the same behavior test. The antidepressant effect was indicated by the average rate of deceasing the immobility time per that of the control group.

The subject of data set [5] is BALB/c-Scn1a<+/−> mice. The experiment in a line: Anticonvulsant effect in mouse model of Dravet syndrome with febrile seizures. Format: in vivo. Particulars: oral; for Difference of the threshold temperature of convulsion from that of the control group: at the dose for anticonvulsive effect, hyperthermia 50 minutes after dosing; for Dose for anticonvulsive effect: dose needed to raise the threshold body temperature for inducing febrile seizures significantly compared with the control group. From the text:
This is a test for evaluating the anticonvulsant effect for febrile seizures of the test compounds in a mouse model of Dravet syndrome. In this test, BALB/c-Scn1a<+/−> mice were used (catalog number: RBRC06422; they are available from RIKEN BioResource Research Center via the National BioResource Project). The present mouse model having a mutation in a responsible gene for Dravet syndrome, Scn1A, presents with symptoms similar to febrile seizures caused by hyperthermia which is a symptom in a patient suffering from Dravet syndrome, and can be used as an animal model of spontaneous Dravet syndrome (for reference: the Japan Epilepsy Research Foundation, Annual Report 2015: 26: 69-76). To male mice model of Dravet syndrome (one group: 5-8 mice, body weight: 20-30 g) were orally administered the test compound. 50 minutes later, the mice were put in a chamber warmed with hot bath to evoke hyperthermia, and observed about the development of febrile seizures. Immediately after febrile seizure was developed, the rectal temperature was measured and used as the threshold body temperature for inducing febrile seizures.

Like-named read-outs stand apart in the source and are kept apart here. Marks after values point to notes of the source that are not given here.

With `CCC(CC)(C(N)=O)c1nc(-c2ccc(Cl)cc2)no1` [Example 11, 2-[3-(4-chlorophenyl)-1,2,4-oxadiazol-5-yl]-2-ethylbutanamide], the “animals exhibiting anticonvulsant action (in words)” value in data set [1] was “more than half of the animals”. The “The potentiating effect on GABA(A) receptors EC20” value in data set [2] stood at 5.1 µM. For the same compound, the “average of the five mice's walking time” value in data set [3] (100 mg/kg) amounted to 180 s.

Turning to `CN1C(=O)CN=C(c2ccccc2)c2cc(Cl)ccc21` [diazepam, reference compound], in data set [2], the “potentiating effect on GABA(A) receptors (in words)” value is “has the potentiating effect on GABA(A) receptors”, the “Inhibition rate to the increased electric current by adding flumazenil” value stood at 93% and the “The potentiating effect on GABA(A) receptors EC20” value worked out at 0.03 µM. Besides, the “inhibition of the potentiating effect on GABA(A) receptors with flumazenil (in words)” value in data set [2] (flumazenil, benzodiazepine antagonist) is listed as “strongly inhibited”. In addition, in data set [4], the “antidepressant effect / immobility time (in words)” value is on record as “did not show antidepressant effect”. For the same compound, in data set [4] (oral 10 mg/kg), the “average rate of deceasing the immobility time per that of the control group” value (shortened to “average rate … per that of the control group”) turned out to be 18.3.

Consider `CN1C(=O)CCC1c1nc(-c2ccc(Cl)cc2)no1` (stereo not shown) [Example 29, 5-[3-(4-chlorophenyl)-1,2,4-oxadiazol-5-yl]-1-methylpyrrolidin-2-one], for which, in data set [5], the “Difference of the threshold temperature of convulsion from that of the control group” value (“Difference” below) came out at 0.7 °C and the “Dose for anticonvulsive effect” value is 25 mg/kg. Also, in data set [2], the “Inhibition rate to the increased electric current by adding flumazenil” value is listed as 7% and the “The potentiating effect on GABA(A) receptors EC20” value amounted to 1.1 µM. In addition, the “antidepressant effect / immobility time (in words)” value in data set [4] was “significantly decreased the immobility time”. For the same compound, the “average rate … per that of the control group” value in data set [4] (oral 3 mg/kg) is given as 12.3. For the same compound, the “average rate … per that of the control group” value in data set [4] (oral 10 mg/kg) is 29.4*. Besides, the “average of the five mice's walking time” value in data set [3] (25 mg/kg) was determined as 180 s. For the same compound, the “average of the five mice's walking time” value in data set [3] (50 mg/kg) was 146.4 s.

For the compound `CN1C(=O)CC[C@H]1c1nc(-c2ccc(F)cc2)no1` (single isomer, unassigned) [Example 31], the “animals exhibiting anticonvulsant action (in words)” value in data set [1] is on record as “more than half of the animals”. Besides, in data set [5], the “Difference” value is 0.3 °C and the “Dose for anticonvulsive effect” value is 12.5 mg/kg. For the same compound, in data set [2], the “Inhibition rate to the increased electric current by adding flumazenil” value was less than 0% and the “The potentiating effect on GABA(A) receptors EC20” value worked out at 15 µM. Further, the “average of the five mice's walking time” value in data set [3] (25 mg/kg) stood at 180 s. For the same compound, the “average of the five mice's walking time” value in data set [3] (50 mg/kg) turned out to be 53.2 s. Also, the “average of the five mice's walking time” value in data set [3] (100 mg/kg) was determined as 0 s.

In the case of `CN1C(=O)CCC1c1nc(-c2ccc(Br)cc2)no1` (stereo not shown) [Example 30, 5-[3-(4-bromophenyl)-1,2,4-oxadiazol-5-yl]-1-methylpyrrolidin-2-one], the “animals exhibiting anticonvulsant action (in words)” value in data set [1] was “more than half of the animals”. In data set [3] (50 mg/kg), the “average of the five mice's walking time” value came out at 180 s.

With `CN1C(=O)CCC1c1nc(-c2ccc(F)cc2)no1` (stereo not shown) [Example 25, 5-[3-(4-Fluorophenyl)-1,2,4-oxadiazol-5-yl]-1-methylpyrrolidin-2-one], the “animals exhibiting anticonvulsant action (in words)” value in data set [1] was “more than half of the animals”. In data set [5], the “Difference” value was determined as 0.3 °C and the “Dose for anticonvulsive effect” value is given as 12.5 mg/kg. Besides, in data set [2], the “Inhibition rate to the increased electric current by adding flumazenil” value came out at 12% and the “The potentiating effect on GABA(A) receptors EC20” value is 16 µM. In data set [3] (25 mg/kg), the “average of the five mice's walking time” value was 180 s. Also, the “average of the five mice's walking time” value in data set [3] (50 mg/kg) is 144.8 s.

Regarding `CN1C(=O)CCC1c1nc(-c2ccc(F)cc2)no1` (single isomer, unassigned) [Example 32], the “Difference” value in data set [5] is 0.5 °C. Besides, the “Dose for anticonvulsive effect” value in data set [5] was determined as 25 mg/kg. Also, the “Inhibition rate to the increased electric current by adding flumazenil” value in data set [2] was less than 0%. For the same compound, the “The potentiating effect on GABA(A) receptors EC20” value in data set [2] was 3.6 µM. Besides, the “antidepressant effect / immobility time (in words)” value in data set [4] is “significantly decreased the immobility time”. Moreover, the “average rate … per that of the control group” value in data set [4] (oral 3 mg/kg) is given as 25.3*; in data set [4] (oral 10 mg/kg), 31.6*; in data set [4] (oral 30 mg/kg), 58.9*. Moreover, the “average of the five mice's walking time” value in data set [3] (50 mg/kg) was 180 s; in data set [3] (100 mg/kg), 65.3 s.

As to `CN1C(=O)CCC1(C)c1nc(-c2ccc(F)cc2)no1` (stereo not shown) [Example 28, 5-[3-(4-fluorophenyl)-1,2,4-oxadiazol-5-yl]-1,5-dimethylpyrrolidin-2-one], the “animals exhibiting anticonvulsant action (in words)” value in data set [1] was “more than half of the animals”. Further, in data set [2], the “Inhibition rate to the increased electric current by adding flumazenil” value is 24% and the “The potentiating effect on GABA(A) receptors EC20” value came to 9.3 µM. For the same compound, the “average of the five mice's walking time” value in data set [3] (50 mg/kg) was 180 s.

With `CC(C)(C(N)=O)c1nnc(-c2ccc(Br)cc2)o1` [Example 16, 2-[5-(4-bromophenyl)-1,3,4-oxadiazol-2-yl]-2-methylpropanamide], the “animals exhibiting anticonvulsant action (in words)” value in data set [1] is on record as “more than half of the animals”. Further, the “The potentiating effect on GABA(A) receptors EC20” value in data set [2] was more than 300 µM. The “average of the five mice's walking time” value in data set [3] (100 mg/kg) was 180 s.
